In patent publication US20240066133A1, “THERAPEUTIC AGENTS AND CONJUGATES THEREOF” (Beijing Xuanyi PharmaSciences Co., Ltd., priority 2020, published 2024):
Read-outs that look alike come from different tables or passages of the source. Blank lines part the entries; values can stand above or below the compound they belong to.

Experiments:
[1] = target: T1, Human STING (hSTING-R232) (Homo sapiens, UniProt Q86WV6, H232R); test: Activation of human STING signaling in THP1-Dual KI-hSTING-R232 cells (IRF promoter, QUANTI-Luc); assay type: cell-based; details: THP1 cell line, 24 h, read-out: EC50 IRF3
T1 construct: host or cells: THP1-Dual KI-hSTING-R232 cells
T1 sequence (Q86WV6 whole entry H232R): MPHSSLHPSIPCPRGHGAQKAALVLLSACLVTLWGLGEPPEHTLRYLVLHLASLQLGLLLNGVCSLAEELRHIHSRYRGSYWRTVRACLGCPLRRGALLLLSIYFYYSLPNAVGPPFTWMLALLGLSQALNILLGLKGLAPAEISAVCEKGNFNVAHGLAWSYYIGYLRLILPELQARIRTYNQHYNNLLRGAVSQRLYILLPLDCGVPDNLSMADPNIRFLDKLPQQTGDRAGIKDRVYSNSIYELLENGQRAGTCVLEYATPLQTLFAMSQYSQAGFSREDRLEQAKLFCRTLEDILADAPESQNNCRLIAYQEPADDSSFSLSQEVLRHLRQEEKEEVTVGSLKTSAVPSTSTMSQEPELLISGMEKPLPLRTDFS
Description: Activation of Human STING Signaling in THP1 Cell Line
The cells were treated with 20 μl/well of compounds at 8 concentrations in duplicate in 96-well plate, and incubate for 24 h. To measure IRF promoter activity, 15 μl of cell culture supernatant was mixed with 45 μl QUANTI-Luc in an opaque 96-well plate and immediately measured using Luminometer; to measure NF-κB promoter activity, 15 μl of supernatant was mixed with 90 μl QUANTI-Blue, and incubated at 37° C. for 90 minutes, and read at OD650 nm. EC50 was calculated by nonlinear regression fit with 4-parameter responsive curve fitting using GraphPad Version 8 software (Table 1).

hSTING R232 = target: T2, hSTING R232 (Homo sapiens, UniProt Q86WV6, H232R); test: IRF activation in 293T-Dual hSTING R232 cells (Quanti-Blue); assay type: cell-based; details: 24 hr, read-out: EC50 IRF3
T2 construct: host or cells: 293T-Dual hSTING R232 cells
T2 sequence (Q86WV6 whole entry H232R): as above
Description: A test compound with a serial of 1:3 dilution was prepared in complete medium, and 20 μL of the compound was added to the corresponding well, and incubated with the cells at 37° C. incubator for 24 hr.
To determine the effect on interferon regulatory factor (IRF) activation, 15 μL of cell culture supernatant was transferred into a fresh 96-half area-well plate, 90 μL of Quanti-Blue was added to each well and incubated at 37° C. for 90 min. OD at 650 nm was recorded. EC50 was calculated by nonlinear regression fit with 4-parameter responsive curve fitting using GraphPad Version 8 software (Table 2).

MC38 tumor cells [2] = details: IT 5 ug/mouse every three days, three injections; for anti-tumor efficacy (tumor growth, FIG. 1): single agent, subcutaneous MC38
Description: To Evaluate the in vivo efficacy of A5-I, A5-II, A6-I and A6-II, C57BL/6 mouse was subcutaneously inoculated in the right flank with MC38 tumor cells (1×10^6) in 40 ul of HBSS for tumor development. Treatment started when tumor size reached around 80-100 mm^3, on day 7 after tumor cell implantation. Compounds were administered by IT injection and repeated every three days with total three injections. […] Tumor volumes were measured twice to thrice weekly.

MC38 tumor cells [3] = test: MC38 murine syngeneic model, Example 98 (Table 5); assay type: in vivo, C57BL/6 mouse; details: IT, Q3d × 3; doses per Table 5 (A5-I 3, A19 50 and 17, A33 17×2/8×1, A34 50, A38 51×1/17×2, A69 50, A71 50, A85 46 μg/mouse)
Description: Example 98. Evaluation of Compound A5-I, A19, A33, A34, A38, A69, A71 and A85 in MC38 Murine Syngeneic Model
Compounds (listed in Table 5), were administered by IT injection.

EC50 ([1]; Assay Results 1 (average of more than 2 runs)): 0.45 µM
EC50 ([1]; Assay Results 2 (single run)): 0.564 µM
EC50 (hSTING R232): 0.059 µM
SMILES: BP1(=O)OC[C@H]2O[C@@H](n3cnc4c(N)ncnc43)[C@H](F)[C@@H]2O[P@@](=O)(S)OC[C@H]2O[C@@H](n3cnc4c(=O)[nH]c(N)nc43)[C@H](F)[C@@H]2O1 (single isomer, unassigned) [Compound A1]

SMILES: B[P@]1(=O)OC[C@H]2O[C@@H](n3cnc4c(N)ncnc43)[C@H](F)[C@@H]2O[P@@](=O)(S)OC[C@H]2O[C@@H](n3cnc4c(N)ncnc43)[C@H](F)[C@@H]2O1 [Compound A5-I, ((2R,3R,3aR,5S,7aR,9R,10R,10aR,12S,14aR)-2,9-bis(6-amino-9H-purin-9-yl)-3,10-difluoro-12-mercapto-5,12-dioxidooctahydro-2H,7H-difuro [3,2-d:3′,2′-j][1,3,7,9]tetraoxa[2,8]diphosphacyclododecin-5-yl)trihydroborate]
tumor regression (FIG. 1) (MC38 tumor cells [2]): complete regression for all treated mice
anti-tumor efficacy (tumor growth, FIG. 1) (MC38 tumor cells [2]): significant anti-tumor efficacy
anti-tumor activity compared to vehicle-treated group (FIG. 5) (MC38 tumor cells [3]): significantly improved anti-tumor activity

SMILES: B[P@@]1(=O)OC[C@H]2O[C@@H](n3cnc4c(N)ncnc43)[C@H](F)[C@@H]2O[P@](=O)(S)OC[C@H]2O[C@@H](n3cnc4c(N)ncnc43)[C@H](F)[C@@H]2O1 [Compound A6-II]
anti-tumor efficacy (tumor growth, FIG. 1) (MC38 tumor cells [2]): significant anti-tumor efficacy

SMILES: BP1(=O)OC[C@H]2O[C@@H](n3cnc4c(N)ncnc43)[C@H](F)[C@@H]2O[P@](=O)(S)OC[C@H]2O[C@@H](n3cnc4c(N)ncnc43)[C@H](F)[C@@H]2O1 (some centres unmarked) [Compound A6-I]
anti-tumor efficacy (tumor growth, FIG. 1) (MC38 tumor cells [2]): significant anti-tumor efficacy
